Assay results published in ChEMBL document CHEMBL4507319 (2021).

Key:
[1] = system: Tyrosine-protein kinase ABL1 (Homo sapiens), P00519 [F317L]; details: Compound concentration 1000.0 nM
[2] = biological target: Mitotic checkpoint serine/threonine-protein kinase BUB1 (Homo sapiens) (UniProt O43683); details: Compound concentration 1000.0 nM
[3] = biological target: Calcium/calmodulin-dependent protein kinase type 1G (Homo sapiens) (UniProt Q96NX5); details: Compound concentration 1000.0 nM
[4] = biological target: Cyclin-dependent kinase 11A (Homo sapiens) (UniProt Q9UQ88); details: Compound concentration 1000.0 nM
[5] = biological target: Cyclin-dependent kinase-like 3 (Homo sapiens) (UniProt Q8IVW4); details: Compound concentration 1000.0 nM
[6] = biological target: Dual specificity protein kinase CLK3 (Homo sapiens) (UniProt P49761); details: Compound concentration 1000.0 nM
[7] = biological target: Casein kinase I isoform gamma-2 (Homo sapiens) (UniProt P78368); details: Compound concentration 1000.0 nM
[8] = biological target: Casein kinase I isoform gamma-3 (Homo sapiens) (UniProt Q9Y6M4); details: Compound concentration 1000.0 nM
[9] = biological target: T1, Serine/threonine-protein kinase 17B (Homo sapiens) (UniProt O94768); details: Compound concentration 1000.0 nM
T1 sequence (whole entry): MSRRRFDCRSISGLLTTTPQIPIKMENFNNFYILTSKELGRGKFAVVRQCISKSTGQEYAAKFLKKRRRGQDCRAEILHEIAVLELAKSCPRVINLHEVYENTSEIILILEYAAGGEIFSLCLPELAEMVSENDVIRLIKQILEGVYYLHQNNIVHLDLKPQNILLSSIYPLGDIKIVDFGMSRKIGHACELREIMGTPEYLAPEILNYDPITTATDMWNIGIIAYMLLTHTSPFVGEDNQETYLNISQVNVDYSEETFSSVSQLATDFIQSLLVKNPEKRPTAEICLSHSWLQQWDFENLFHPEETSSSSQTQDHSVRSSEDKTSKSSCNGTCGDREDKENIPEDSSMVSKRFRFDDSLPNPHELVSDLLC

[10] = biological target: T2, Ephrin type-B receptor 2 (Homo sapiens) (UniProt P29323); details: Compound concentration 1000.0 nM
T2 sequence (whole entry): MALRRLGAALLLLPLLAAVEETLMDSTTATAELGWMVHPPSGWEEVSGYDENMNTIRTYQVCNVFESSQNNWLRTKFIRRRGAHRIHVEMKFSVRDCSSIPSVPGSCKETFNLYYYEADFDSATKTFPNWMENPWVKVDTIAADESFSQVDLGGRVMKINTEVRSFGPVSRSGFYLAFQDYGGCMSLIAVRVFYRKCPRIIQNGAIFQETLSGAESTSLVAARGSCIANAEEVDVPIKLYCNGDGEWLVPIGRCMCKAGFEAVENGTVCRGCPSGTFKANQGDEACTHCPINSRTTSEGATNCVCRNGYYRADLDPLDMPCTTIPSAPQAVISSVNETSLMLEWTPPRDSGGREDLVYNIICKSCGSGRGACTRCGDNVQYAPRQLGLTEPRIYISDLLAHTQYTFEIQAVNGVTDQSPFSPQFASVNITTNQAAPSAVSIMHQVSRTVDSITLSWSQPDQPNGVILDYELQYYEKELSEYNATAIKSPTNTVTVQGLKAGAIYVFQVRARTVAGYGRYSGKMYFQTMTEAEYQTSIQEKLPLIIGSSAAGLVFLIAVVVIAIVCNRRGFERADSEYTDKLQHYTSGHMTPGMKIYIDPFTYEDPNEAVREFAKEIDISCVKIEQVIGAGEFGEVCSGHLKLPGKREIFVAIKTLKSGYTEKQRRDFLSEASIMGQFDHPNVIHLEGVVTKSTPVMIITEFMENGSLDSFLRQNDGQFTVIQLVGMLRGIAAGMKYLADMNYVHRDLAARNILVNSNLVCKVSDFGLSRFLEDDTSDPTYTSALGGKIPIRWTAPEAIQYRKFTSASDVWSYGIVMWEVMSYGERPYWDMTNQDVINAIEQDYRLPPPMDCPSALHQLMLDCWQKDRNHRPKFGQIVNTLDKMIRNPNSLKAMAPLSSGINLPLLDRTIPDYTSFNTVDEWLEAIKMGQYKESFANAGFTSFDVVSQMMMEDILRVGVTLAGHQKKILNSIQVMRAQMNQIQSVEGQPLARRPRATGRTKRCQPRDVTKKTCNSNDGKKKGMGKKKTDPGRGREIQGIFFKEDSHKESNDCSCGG

[11] = biological target: Interleukin-1 receptor-associated kinase 1 (Homo sapiens) (UniProt P51617); details: Compound concentration 1000.0 nM
[12] = biological target: Serine/threonine-protein kinase OSR1 (Homo sapiens) (UniProt O95747); details: Compound concentration 1000.0 nM
[13] = biological target: Platelet-derived growth factor receptor alpha (Homo sapiens) (UniProt P16234); details: Compound concentration 1000.0 nM
[14] = biological target: Calcium-dependent protein kinase 1 (Plasmodium falciparum) (UniProt P62344); details: Compound concentration 1000.0 nM
[15] = system: Phosphatidylinositol 4,5-bisphosphate 3-kinase catalytic subunit alpha isoform (Homo sapiens), P42336 [E542K]; details: Compound concentration 1000.0 nM
[16] = biological target: Receptor-interacting serine/threonine-protein kinase 2 (Homo sapiens) (UniProt O43353); details: Compound concentration 1000.0 nM
[17] = biological target: Rho-associated protein kinase 1 (Homo sapiens) (UniProt Q13464); details: Compound concentration 1000.0 nM
[18] = biological target: SRSF protein kinase 2 (Homo sapiens) (UniProt P78362); details: Compound concentration 1000.0 nM
[19] = biological target: Serine/threonine-protein kinase 33 (Homo sapiens) (UniProt Q9BYT3); details: Compound concentration 1000.0 nM
[20] = biological target: Non-receptor tyrosine-protein kinase TYK2 (Homo sapiens) (UniProt P29597); details: Compound concentration 1000.0 nM
[21] = biological target: 5-hydroxytryptamine receptor 7 (Homo sapiens) (UniProt P34969); details: Compound concentration 10.0 uM
Sequence of 5-hydroxytryptamine receptor 7 (Homo sapiens) (P34969 whole entry): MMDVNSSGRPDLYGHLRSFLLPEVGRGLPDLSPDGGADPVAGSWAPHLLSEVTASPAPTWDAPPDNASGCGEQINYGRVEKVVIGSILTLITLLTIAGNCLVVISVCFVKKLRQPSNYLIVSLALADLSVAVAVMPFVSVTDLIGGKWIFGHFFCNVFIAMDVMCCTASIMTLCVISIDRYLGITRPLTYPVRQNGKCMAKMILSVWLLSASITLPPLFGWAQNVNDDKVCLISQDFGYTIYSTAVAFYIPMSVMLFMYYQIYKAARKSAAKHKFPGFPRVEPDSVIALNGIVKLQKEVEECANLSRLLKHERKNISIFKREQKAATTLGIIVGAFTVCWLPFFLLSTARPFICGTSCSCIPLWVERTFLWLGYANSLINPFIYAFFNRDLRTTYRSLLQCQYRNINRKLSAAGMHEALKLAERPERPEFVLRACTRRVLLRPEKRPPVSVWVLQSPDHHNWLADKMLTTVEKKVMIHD

Sequence of SRSF protein kinase 2 (Homo sapiens) (P78362 whole entry, looked up): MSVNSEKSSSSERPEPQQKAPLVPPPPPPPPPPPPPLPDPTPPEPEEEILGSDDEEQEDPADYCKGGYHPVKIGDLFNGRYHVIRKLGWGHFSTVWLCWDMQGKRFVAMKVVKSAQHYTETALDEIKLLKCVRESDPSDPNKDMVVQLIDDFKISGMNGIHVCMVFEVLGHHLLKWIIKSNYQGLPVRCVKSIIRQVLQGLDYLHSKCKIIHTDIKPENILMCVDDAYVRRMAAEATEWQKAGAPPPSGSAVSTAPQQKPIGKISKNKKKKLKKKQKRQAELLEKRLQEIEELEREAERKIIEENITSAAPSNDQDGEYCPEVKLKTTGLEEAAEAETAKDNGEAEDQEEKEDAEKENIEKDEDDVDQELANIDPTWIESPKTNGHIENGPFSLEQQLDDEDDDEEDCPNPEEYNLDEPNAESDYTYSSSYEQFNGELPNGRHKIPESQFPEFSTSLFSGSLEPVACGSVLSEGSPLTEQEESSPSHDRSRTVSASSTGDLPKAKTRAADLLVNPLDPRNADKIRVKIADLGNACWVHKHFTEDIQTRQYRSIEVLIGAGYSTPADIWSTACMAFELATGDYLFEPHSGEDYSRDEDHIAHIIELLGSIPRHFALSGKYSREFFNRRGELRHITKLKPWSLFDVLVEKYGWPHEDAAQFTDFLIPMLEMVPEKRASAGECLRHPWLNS
Sequence of Serine/threonine-protein kinase 33 (Homo sapiens) (Q9BYT3 whole entry, looked up): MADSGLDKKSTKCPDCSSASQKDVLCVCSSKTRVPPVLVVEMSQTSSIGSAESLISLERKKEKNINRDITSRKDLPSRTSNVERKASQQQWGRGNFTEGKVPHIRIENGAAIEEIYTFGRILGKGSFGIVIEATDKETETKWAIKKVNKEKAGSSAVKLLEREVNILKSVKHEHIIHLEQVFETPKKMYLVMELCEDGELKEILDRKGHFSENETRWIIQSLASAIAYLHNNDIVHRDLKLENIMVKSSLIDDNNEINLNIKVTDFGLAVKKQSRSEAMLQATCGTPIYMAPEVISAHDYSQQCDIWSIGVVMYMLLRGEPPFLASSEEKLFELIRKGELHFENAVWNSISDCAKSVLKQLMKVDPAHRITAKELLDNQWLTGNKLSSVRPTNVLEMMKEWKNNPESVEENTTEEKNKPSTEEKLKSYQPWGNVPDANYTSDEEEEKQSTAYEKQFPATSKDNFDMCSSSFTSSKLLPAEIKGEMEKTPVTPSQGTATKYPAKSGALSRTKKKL
Sequence of Cyclin-dependent kinase-like 3 (Homo sapiens) (Q8IVW4 whole entry, looked up): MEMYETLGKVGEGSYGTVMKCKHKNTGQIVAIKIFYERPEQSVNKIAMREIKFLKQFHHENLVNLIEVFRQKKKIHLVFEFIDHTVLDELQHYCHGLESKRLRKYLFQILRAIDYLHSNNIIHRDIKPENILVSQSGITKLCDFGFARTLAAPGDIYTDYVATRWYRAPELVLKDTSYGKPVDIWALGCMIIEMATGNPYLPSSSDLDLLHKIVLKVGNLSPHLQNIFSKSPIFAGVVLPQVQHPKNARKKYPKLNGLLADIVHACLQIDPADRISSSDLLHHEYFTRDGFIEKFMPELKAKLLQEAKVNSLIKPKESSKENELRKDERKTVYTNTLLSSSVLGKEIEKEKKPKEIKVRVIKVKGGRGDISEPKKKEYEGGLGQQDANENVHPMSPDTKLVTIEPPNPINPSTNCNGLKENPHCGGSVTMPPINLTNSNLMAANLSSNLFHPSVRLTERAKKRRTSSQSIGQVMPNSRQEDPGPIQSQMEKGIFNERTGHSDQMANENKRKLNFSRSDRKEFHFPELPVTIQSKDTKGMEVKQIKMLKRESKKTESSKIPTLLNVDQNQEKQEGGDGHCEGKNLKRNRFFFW
Sequence of Casein kinase I isoform gamma-3 (Homo sapiens) (Q9Y6M4 whole entry, looked up, canonical isoform): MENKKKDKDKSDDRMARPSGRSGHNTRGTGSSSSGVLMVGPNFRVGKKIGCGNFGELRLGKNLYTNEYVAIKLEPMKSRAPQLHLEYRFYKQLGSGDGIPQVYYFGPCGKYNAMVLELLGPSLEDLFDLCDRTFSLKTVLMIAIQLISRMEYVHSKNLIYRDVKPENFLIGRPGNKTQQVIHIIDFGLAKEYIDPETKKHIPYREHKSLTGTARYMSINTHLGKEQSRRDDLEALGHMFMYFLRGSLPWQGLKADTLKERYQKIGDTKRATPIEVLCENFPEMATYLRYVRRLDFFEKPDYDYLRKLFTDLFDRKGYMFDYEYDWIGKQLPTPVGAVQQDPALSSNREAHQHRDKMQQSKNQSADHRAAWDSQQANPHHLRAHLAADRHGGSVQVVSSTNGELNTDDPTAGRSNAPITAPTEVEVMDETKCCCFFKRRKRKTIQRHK
Sequence of Phosphatidylinositol 4,5-bisphosphate 3-kinase catalytic subunit alpha isoform (Homo sapiens), P42336 [E542K] (P42336 whole entry E542K, canonical isoform): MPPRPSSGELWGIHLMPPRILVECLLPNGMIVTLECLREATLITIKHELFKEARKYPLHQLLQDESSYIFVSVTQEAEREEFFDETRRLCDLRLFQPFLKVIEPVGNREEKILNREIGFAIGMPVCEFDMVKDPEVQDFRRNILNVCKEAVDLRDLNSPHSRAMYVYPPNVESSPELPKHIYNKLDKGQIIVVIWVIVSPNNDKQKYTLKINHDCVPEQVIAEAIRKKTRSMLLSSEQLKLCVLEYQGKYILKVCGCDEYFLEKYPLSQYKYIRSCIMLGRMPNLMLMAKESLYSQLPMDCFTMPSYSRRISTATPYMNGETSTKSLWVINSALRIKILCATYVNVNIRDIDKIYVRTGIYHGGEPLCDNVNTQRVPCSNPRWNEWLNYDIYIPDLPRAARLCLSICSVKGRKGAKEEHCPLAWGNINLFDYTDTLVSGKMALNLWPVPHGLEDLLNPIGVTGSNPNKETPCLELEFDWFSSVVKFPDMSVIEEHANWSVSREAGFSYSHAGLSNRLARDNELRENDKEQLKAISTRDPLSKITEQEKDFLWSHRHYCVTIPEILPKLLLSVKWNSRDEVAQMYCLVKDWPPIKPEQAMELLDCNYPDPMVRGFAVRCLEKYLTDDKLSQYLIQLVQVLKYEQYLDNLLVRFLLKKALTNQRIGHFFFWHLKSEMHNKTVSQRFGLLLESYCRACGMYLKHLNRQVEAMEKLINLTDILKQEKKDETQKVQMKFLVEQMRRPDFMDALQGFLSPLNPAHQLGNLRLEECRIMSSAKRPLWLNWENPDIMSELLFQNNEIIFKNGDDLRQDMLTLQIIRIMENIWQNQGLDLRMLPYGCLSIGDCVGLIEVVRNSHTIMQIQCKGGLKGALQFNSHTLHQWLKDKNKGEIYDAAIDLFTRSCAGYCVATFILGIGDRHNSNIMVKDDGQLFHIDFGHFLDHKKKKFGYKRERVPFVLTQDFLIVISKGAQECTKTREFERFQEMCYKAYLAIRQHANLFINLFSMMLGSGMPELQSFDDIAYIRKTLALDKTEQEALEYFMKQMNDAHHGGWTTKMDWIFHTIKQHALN
Sequence of Cyclin-dependent kinase 11A (Homo sapiens) (Q9UQ88 whole entry): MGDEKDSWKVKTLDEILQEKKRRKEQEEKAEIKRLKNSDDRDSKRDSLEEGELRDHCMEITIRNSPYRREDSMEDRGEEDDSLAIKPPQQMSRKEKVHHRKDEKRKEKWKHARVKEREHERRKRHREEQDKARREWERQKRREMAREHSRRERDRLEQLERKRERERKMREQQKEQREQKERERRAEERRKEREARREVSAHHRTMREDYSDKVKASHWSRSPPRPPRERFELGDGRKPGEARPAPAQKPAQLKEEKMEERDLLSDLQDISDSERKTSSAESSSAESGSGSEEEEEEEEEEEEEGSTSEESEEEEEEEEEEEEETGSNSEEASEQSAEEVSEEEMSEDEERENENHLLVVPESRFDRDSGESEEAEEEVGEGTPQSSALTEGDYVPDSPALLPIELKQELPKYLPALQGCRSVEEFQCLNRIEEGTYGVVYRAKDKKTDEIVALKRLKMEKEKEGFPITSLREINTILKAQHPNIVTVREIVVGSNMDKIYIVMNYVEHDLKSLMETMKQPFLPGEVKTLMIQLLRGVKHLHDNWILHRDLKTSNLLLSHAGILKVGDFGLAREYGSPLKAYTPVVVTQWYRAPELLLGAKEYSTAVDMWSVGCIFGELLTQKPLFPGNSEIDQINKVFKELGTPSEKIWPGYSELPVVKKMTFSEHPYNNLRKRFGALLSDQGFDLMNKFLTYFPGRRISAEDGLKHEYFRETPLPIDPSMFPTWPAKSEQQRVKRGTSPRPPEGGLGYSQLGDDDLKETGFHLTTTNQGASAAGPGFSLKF
Sequence of Calcium/calmodulin-dependent protein kinase type 1G (Homo sapiens) (Q96NX5 whole entry): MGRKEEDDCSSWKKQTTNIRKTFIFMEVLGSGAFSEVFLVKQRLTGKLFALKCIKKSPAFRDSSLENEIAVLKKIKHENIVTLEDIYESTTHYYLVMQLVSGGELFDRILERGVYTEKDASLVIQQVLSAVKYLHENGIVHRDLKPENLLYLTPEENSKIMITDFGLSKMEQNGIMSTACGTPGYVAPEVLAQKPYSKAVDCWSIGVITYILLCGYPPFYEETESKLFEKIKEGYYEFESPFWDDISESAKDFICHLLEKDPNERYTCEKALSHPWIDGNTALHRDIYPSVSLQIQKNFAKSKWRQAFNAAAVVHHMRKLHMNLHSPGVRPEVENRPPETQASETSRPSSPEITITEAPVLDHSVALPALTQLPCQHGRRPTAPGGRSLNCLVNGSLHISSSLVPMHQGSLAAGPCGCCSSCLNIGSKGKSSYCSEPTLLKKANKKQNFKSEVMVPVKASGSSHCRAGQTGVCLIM

CCc1ccccc1C(=O)Nc1n[nH]c2c(C)c(F)c(C3C(C#N)=C(C)N(C)C(C)=C3C#N)cc12 [BAY-3827]
inactive: residual activity [1] 100% | residual activity [2] 100% | residual activity [3] 90% | residual activity [4] 86% | residual activity [5] 87% | residual activity [6] 100% | residual activity [7] 97% | residual activity [8] 100% | residual activity [9] 100% | residual activity [10] 76% | residual activity [11] 100% | residual activity [12] 100% | residual activity [13] 100% | residual activity [14] 100% | residual activity [15] 54% | residual activity [16] 100% | residual activity [17] 100% | residual activity [18] 100% | residual activity [19] 100% | residual activity [20] 100% | inhibition [21] 13.9%

CC1=C(C#N)C(c2ccc3c(c2)c(NC(=O)c2ccccc2C)nn3C)C(C#N)=C(C)N1 [BAY-974]
inactive: residual activity [1] 97% | residual activity [2] 74% | residual activity [3] 99% | residual activity [4] 100% | residual activity [5] 79% | residual activity [6] 94% | residual activity [7] 95% | residual activity [8] 100% | residual activity [9] 88% | residual activity [10] 86% | residual activity [11] 75% | residual activity [12] 83% | residual activity [13] 86% | residual activity [14] 98% | residual activity [15] 91% | residual activity [16] 100% | residual activity [17] 100% | residual activity [18] 88% | residual activity [19] 100% | residual activity [20] 88% | inhibition [21] 6.72%
